Patent publication US8354441B2, “Oxazoline derivatives” (Hoffmann-La Roche Inc., priority 2009, dated 2013)

Assays:
mouse TAAR1 = biological target: T1, mouse TAAR1 (Mus musculus, UniProt Q923Y8); experiment: TAAR1 radioligand binding with [3H]-rac-2-(1,2,3,4-tetrahydro-1-naphthyl)-2-imidazoline, membranes of stably transfected HEK293 cells; conditions: first value of the cell, read-out: Ki (μM) mouse/rat: mouse
T1 construct: expressed in transfected cells; host or cells: HEK293 (ATCC # CRL-1573), stably transfected with pIRESneo2 expression plasmid
T1 sequence (Q923Y8 whole entry): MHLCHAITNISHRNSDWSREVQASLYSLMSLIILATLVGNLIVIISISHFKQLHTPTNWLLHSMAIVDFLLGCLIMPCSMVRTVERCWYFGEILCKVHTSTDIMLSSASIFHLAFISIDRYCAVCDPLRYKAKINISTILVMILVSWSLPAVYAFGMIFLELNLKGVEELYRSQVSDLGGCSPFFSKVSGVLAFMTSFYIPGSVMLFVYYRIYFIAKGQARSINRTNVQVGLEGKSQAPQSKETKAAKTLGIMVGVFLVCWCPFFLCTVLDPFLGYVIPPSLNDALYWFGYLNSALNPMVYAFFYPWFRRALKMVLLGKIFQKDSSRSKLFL
Experimental: (§1) For the construction of expression plasmids the coding sequences of human, rat and mouse TAAR 1 were amplified from genomic DNA essentially as described by Lindemann et al.. The Expand High Fidelity PCR System (Roche Diagnostics) was used with 1.5 mM Mg^2+ and purified PCR products were cloned into pCR2.1-TOPO cloning vector (Invitrogen) following the instructions of the manufacturer. PCR products were subcloned into the pIRESneo2 vector (BD Clontech, Palo Alto, Calif.), and expression vectors were sequence verified before introduction in cell lines.
(§2) HEK293 cells (ATCC # CRL-1573) were cultured essentially as described by Lindemann et al. (2005). For the generation of stably transfected cell lines HEK293 cells were transfected with the pIRESneo2 expression plasmids containing the TAAR coding sequences (described above) with Lipofectamine 2000 (Invitrogen) according to the instructions of the manufacturer, and 24 hrs post transfection the culture medium was supplemented with 1 mg/ml G418 (Sigma, Buchs, Switzerland). After a culture period of about 10 d clones were isolated, expanded and tested for responsiveness to trace amines (all compounds purchased from Sigma) with the cAMP Biotrak Enzyme immunoassay (EIA) System (Amersham) following the non-acetylation EIA procedure provided by the manufacturer.
(§3) Cells at confluence were rinsed with ice-cold phosphate buffered saline without Ca^2+ and Mg^2+ containing 10 mM EDTA and pelleted by centrifugation at 1000 rpm for 5 min at 4° C. The pellet was then washed twice with ice-cold phosphate buffered saline and the cell pellet was frozen immediately by immersion in liquid nitrogen and stored until use at −80° C. The cell pellet was then suspended in 20 ml HEPES-NaOH (20 mM), pH 7.4 containing 10 mM EDTA, and homogenized with a Polytron (PT 3000, Kinematica) at 10,000 rpm for 10 s. The homogenate was centrifuged at 48,000×g for 30 min at 4° C. and the pellet resuspended in 20 ml HEPES-NaOH (20 mM), pH 7.4 containing 0.1 mM EDTA (buffer A), and homogenized with a Polytron at 10,000 rpm for 10 s. The homogenate was then centrifuged at 48,000×g for 30 min at 4° C. and the pellet resuspended in 20 ml buffer A, and homogenized with a Polytron at 10,000 rpm for 10 s. Protein concentration was determined by the method of Pierce (Rockford, Ill.). The homogenate was then centrifuged at 48,000×g for 10 min at 4° C., resuspended in HEPES-NaOH (20 mM), pH 7.0 including MgCl2 (10 mM) and […] homogenized with a Polytron at 10,000 rpm for 10 s.
(§4) The binding assay was performed at 4° C. in a final volume of 1 ml, and with an incubation time of 30 min. The radioligand [^3H]-rac-2-(1,2,3,4-tetrahydro-1-naphthyl)-2-imidazoline was used at a concentration equal to the calculated Kd value of 60 nM to give a bound at around 0.1% of the total added radioligand concentration, and a specific binding which represented approximately 70-80% of the total binding. Non-specific binding was defined as the amount of [^3H]-rac-2-(1,2,3,4-tetrahydro-1-naphthyl)-2-imidazoline bound in the presence of the appropriate unlabelled ligand (10 μM). Competing ligands were tested in a wide range of concentrations (10 pM-30 μM). […] Each experiment was performed in duplicate. All incubations were terminated by rapid filtration through UniFilter-96 plates (Packard Instrument Company) and glass filter GF/C, pre-soaked for at least 2 h in polyethylenimine 0.3%, and using a Filtermate 96 Cell Harvester (Packard Instrument Company). The tubes and filters were then washed 3 times with 1 ml aliquots of cold buffer B. Filters were not dried and soaked in Ultima gold (45 μl/well, Packard Instrument Company) and bound radioactivity was counted by a TopCount Microplate Scintillation Counter (Packard Instrument Company).

rat TAAR1 = biological target: T2, rat TAAR1 (Rattus norvegicus, UniProt Q923Y9); experiment: as above; conditions: second value of the cell, read-out: Ki (μM) mouse/rat: rat
T2 construct: expressed in transfected cells; host or cells: HEK293 (ATCC # CRL-1573), stably transfected with pIRESneo2 expression plasmid
T2 sequence (Q923Y9 whole entry): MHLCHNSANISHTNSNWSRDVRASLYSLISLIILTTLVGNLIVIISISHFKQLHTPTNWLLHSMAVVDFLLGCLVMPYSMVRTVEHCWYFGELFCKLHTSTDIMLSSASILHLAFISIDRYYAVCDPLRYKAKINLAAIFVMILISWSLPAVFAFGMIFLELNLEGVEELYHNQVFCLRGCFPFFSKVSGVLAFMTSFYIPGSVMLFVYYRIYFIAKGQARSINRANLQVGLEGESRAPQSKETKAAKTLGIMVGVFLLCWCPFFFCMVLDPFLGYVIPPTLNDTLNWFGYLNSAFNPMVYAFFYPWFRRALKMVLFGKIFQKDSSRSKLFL
Experimental: as §1, §2, §3, §4

| SMILES | Ki (mouse TAAR1) | Ki (rat TAAR1) |
| --- | --- | --- |
| NC1=N[C@@H](CCc2ccc(NC(=O)c3cccnc3F)cc2)CO1 [Example 99, (S)-N-(4-(2-(2-amino-4,5-dihydrooxazol-4-yl)ethyl)phenyl)-2-fluoronicotinamide] | 0.0081 µM | 0.0018 µM |
| NC1=N[C@@H](CCc2ccc(NC(=O)c3ccc(Cl)nc3)cc2)CO1 [Example 31, N-{4-[2-((S)-2-Amino-4,5-dihydro-oxazol-4-yl)-ethyl]-phenyl}-6-chloro-nicotinamide] | 0.0025 µM | 0.0035 µM |
| NC1=N[C@@H](CCc2ccc(NC(=O)Oc3cccc(C(F)(F)F)c3)cc2)CO1 [Example 149, {4-[2-((S)-2-Amino-4,5-dihydro-oxazol-4-yl)-ethyl]-phenyl}-carbamic acid 3-trifluoromethyl-phenyl ester] | 0.0097 µM | 0.0092 µM |
| NC1=N[C@@H](CCc2ccc(NC(=O)c3cnc(Cl)cn3)cc2)CO1 [Example 126, (S)-N-(4-(2-(2-Amino-4,5-dihydrooxazol-4-yl)ethyl)phenyl)-5-chloropyrazine-2-carboxamide] | 0.0007 µM | 0.002 µM |
| CCc1ccc(C(=O)Nc2ccc(CC[C@H]3COC(N)=N3)cc2)nc1 [Example 178, (S)-N-(4-(2-(2-Amino-4,5-dihydrooxazol-4-yl)ethyl)phenyl)-5-ethylpicolinamide] | 0.0004 µM | 0.0004 µM |
| C[C@@H]1OC(N)=N[C@H]1CCc1ccc(NC(=O)c2ccc(C(F)(F)F)cn2)cc1 [Example 226, 5-Trifluoromethyl-pyridine-2-carboxylic acid {4-[2-((4S,5S)-2-amino-5-methyl-4,5-dihydro-oxazol-4-yl)-ethyl]-phenyl}-amide] | 0.0011 µM | 0.0021 µM |
| COc1cc(C(=O)Nc2ccc(CC[C@H]3COC(N)=N3)cc2)nc(Cl)n1 [Example 231, 2-Chloro-6-methoxy-pyrimidine-4-carboxylic acid {4-[2-((S)-2-amino-4,5-dihydro-oxazol-4-yl)-ethyl]-phenyl}-amide] | 0.0009 µM | 0.0013 µM |
| NC1=N[C@@H](CCc2ccc(NC(=O)C(F)(F)c3ccc(Cl)c(Cl)c3)cc2)CO1 [Example 125, (S)-N-(4-(2-(2-Amino-4,5-dihydrooxazol-4-yl)ethyl)phenyl)-2-(3,4-dichlorophenyl)-2,2-difluoroacetamide] | 0.0006 µM | 0.0011 µM |
| COc1ccc(OC(=O)Nc2ccc(CC[C@H]3COC(N)=N3)cc2)cc1 [Example 147, {4-[2-((S)-2-Amino-4,5-dihydro-oxazol-4-yl)-ethyl]-phenyl}-carbamic acid 4-methoxy-phenyl ester] | 0.0006 µM | 0.0003 µM |
| NC1=N[C@@H](CCc2ccc(C(=O)Nc3ccc(Cl)cn3)cc2)CO1 [Example 131, (S)-4-(2-(2-Amino-4,5-dihydrooxazol-4-yl)ethyl)-N-(5-chloropyridin-2-yl)benzamide] | 0.004 µM | 0.0008 µM |
| CC(C(=O)Nc1ccc(CC[C@H]2COC(N)=N2)cc1)c1cccc(OC(F)(F)F)c1 (stereo partly drawn) [Example 82, N-{4-[2-((S)-2-Amino-4,5-dihydro-oxazol-4-yl)-ethyl]-phenyl}-2-(3-trifluoromethoxy-phenyl)-propionamide] | 0.0005 µM | 0.0017 µM |
| NC1=N[C@@H](CCc2ccc(NC(=O)c3cnc(C(F)(F)F)cn3)cc2)CO1 [Example 159, (S)-N-(4-(2-(2-Amino-4,5-dihydrooxazol-4-yl)ethyl)phenyl)-5-(trifluoromethyl)pyrazine-2-carboxamide] | 0.001 µM | 0.0024 µM |
| NC1=N[C@@H](CCc2ccc(NC(=O)c3cncc(Cl)c3)cc2)CO1 [Example 124, (S)-N-(4-(2-(2-Amino-4,5-dihydrooxazol-4-yl)ethyl)phenyl)-5-chloronicotinamide] | 0.004 µM | 0.0061 µM |
| N#Cc1ccc(C(=O)Nc2ccc(CC[C@H]3COC(N)=N3)cc2)nc1 [Example 119, (S)-N-(4-(2-(2-Amino-4,5-dihydrooxazol-4-yl)ethyl)phenyl)-5-cyanopicolinamide] | 0.0015 µM | 0.0044 µM |
